Among the data in patent US20050059585A1, “Methionine aminopeptidase-2 inhibitors and methods of use thereof” (Praecis Pharmaceuticals Inc., priority 2000, published 2005) are IC50 values, retold here.

The subject of assay [1] is bovine aortic endothelial cell. Nature of the assay: bovine aortic endothelial cell growth assay (Baec assay). In kind it is cell-based. As to the method: The angiogenesis inhibitor compounds of the invention were tested for their ability to modulate human endothelial cell growth and for their ability to modulate the activity of MetAP2. The MetAP2 enzyme assay was performed essentially as described in Turk, B. et al. (1999) Chem. & Bio. 6: 823-833, the entire contents of which are incorporated herein by reference. The bovine aortic endothelial cell growth assay (Baec assay) was performed essentially as described in Turk, B. et al. (supra), the entire contents of which are incorporated herein by reference.

The test system of assay [2] is human umbilical vein endothelial cells (HUVEC). Nature of the assay: human endothelial cell growth assay (Huvec assay). In kind it is cell-based. As to the method:
For the human endothelial cell growth assay, human umbilical vein endothelial cells (HUVEC) were maintained in Clonetics endothelial growth medium (EGM) in a 37° C. humidified incubator. Cells were detached with trypsin and pelleted by centrifugation at 300×g for 5 minutes at room temperature. HUVEC were added to 96-well plates at 5,000 cells/well. After incubating for 6 hours, the medium was replaced with 0.2 ml fresh EGM supplemented with 0.5 nM bFGF and the desired concentration of test angiogenesis inhibitor compound. Test angiogenesis inhibitor compounds were initially dissolved in ethanol at stock concentrations of either 10 mM or 0.1 mM, and subsequently diluted in EGM to obtain concentrations from […] to 10 μM. After 48 hours at 37° C., the medium was replaced with fresh bFGF-supplemented EGM and test angiogenesis inhibitor compound. Following incubation for an additional 48 hours at 37° C. MTT (3-[4,5-dimethylthiazol-2-yl]-2,5-diphenyl-tetrazolium bromide) was added to 1 mg/ml. After 2-4 hours at 37° C. the medium was replaced with 0.1 ml/well isopropanol. The plates were placed on a shaker for 15 minutes at room temperature and analyzed in a Labsystems Multiskan plate spectrophotometer at an optical density of 570 nm.

The target of another assay is T1, MetAP2 (Homo sapiens, UniProt P50579).
T1 construct: made in house; host or cells: insect cells
T1 sequence (P50579 whole entry): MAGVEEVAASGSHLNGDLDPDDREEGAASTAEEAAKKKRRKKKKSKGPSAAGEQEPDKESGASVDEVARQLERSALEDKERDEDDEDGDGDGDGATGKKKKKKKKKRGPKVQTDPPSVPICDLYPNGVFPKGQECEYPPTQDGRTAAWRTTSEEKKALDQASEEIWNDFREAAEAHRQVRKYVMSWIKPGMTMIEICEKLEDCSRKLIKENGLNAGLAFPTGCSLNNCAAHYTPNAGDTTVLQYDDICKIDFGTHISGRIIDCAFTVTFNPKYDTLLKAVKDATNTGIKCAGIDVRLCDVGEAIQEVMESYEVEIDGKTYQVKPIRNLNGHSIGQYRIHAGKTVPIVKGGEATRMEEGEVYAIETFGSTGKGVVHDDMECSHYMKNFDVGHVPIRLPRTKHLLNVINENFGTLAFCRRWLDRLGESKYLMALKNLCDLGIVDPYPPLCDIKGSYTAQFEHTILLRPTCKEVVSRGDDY
Nature of the assay: MetAP2 enzyme assay. The class given is biochemical. On the procedure:
Finally, the ability of the angiogenesis inhibitor compounds of the invention to modulate the activity of MetAP2 may be tested as follows.. Recombinant human MetAP2 may be expressed and purified from insect cells as described in Li and Chang, (1996) Biochem. Biophys. Res. Commun. 227:152-159. Various amounts of angiogenesis inhibitor compound is then added to buffer H (10 mM Hepes, pH 7.35, 100 mM KCl, 10% glycerol, and […]) containing lnM purified recombinant human MetAP2 and incubated at 37° C. for 30 minutes. To start the enzymatic reaction a peptide containing a methionine residue, e.g., Met-Gly-Met, is added to the reaction mixture (to a concentration of 1 mM). Released methionine is subsequently quantified at different time points (e.g., at 0, 2, 3, and 5 minutes) using the method of Zou et al. (1995) Mol. Gen Genetics 246:247-253).
The angiogenesis inhibitor compounds of the invention were tested for their ability to modulate human endothelial cell growth and for their ability to modulate the activity of MetAP2. The MetAP2 enzyme assay was performed essentially as described in Turk, B. et al. (1999) Chem. & Bio. 6: 823-833, the entire contents of which are incorporated herein by reference. […]

[3] abbreviates: Bos taurus, BAEC, read-out: IC50 (pM), Baec Assay.
The mark [4] stands for this setting: Homo sapiens, HUVEC, read-out: IC50 (pM), Huvec Assay.

Read-outs that look alike come from different tables or passages of the source. Square brackets hold non-standard residues; d marks the D form. Peptide text beside a SMILES is read from it. * marks the point of attachment. X2 = CO[C@@H]1[C@H](OC(=O)*)CC[C@]2(CO2)[C@H]1[C@@]1(C)O[C@@H]1CC=C(C)C; X3 = CO[C@@H]1[C@H](OC(=O)*)CC[C@]2(CO2)[C@H]1[C@@]1(C)O[C@@H]1CCC(C)C; Sar = CNCC(=O)O Bounds are passed on as bounds.

Regarding `COC(=O)[C@H](NC(=O)O[C@@H]1CC[C@]2(CO2)[C@@H]([C@@]2(C)O[C@@H]2CC=C(C)C)[C@@H]1OC)c1ccccc1` [Example 4, {(3R, 4S, 5S, 6R)-5-Methoxy-4-[(2R, 3R )-2-methyl-3-(3-methyl-but-2-enyl)-oxiranyl]-1-oxa-spiro[2.5]oct-6-yloxycarbonylamino}-phenyl-acetic acid methyl ester], the results for the IC50 in assay [1] (setting [3]) and in assay [2] (setting [4]) were 35 pM and 36 pM, respectively.

As to `COC(=O)[C@H](NC(=O)O[C@@H]1CC[C@]2(CO2)[C@@H]([C@@]2(C)O[C@@H]2CC=C(C)C)[C@@H]1OC)C1CCCCC1` [Example 9, Cyclohexyl-2-{(3R, 4S, 5S, 6R )-5-Methoxy-4-[(2R, 3R)-2-methyl-3-(3-methyl-but-2-enyl)-oxiranyl]-1-oxa-spiro[2.5]oct-6-yloxycarbonylamino}-acetic acid methyl ester], the IC50 in assay [1] (setting [3]) came out at 165 pM. With `CO[C@@H]1[C@H](OC(=O)N[C@@H](C(=O)N[C@@H](CO)C(N)=O)C(C)C)CC[C@]2(CO2)[C@H]1[C@@]1(C)O[C@@H]1CC=C(C)C` [Example 11], the IC50 in assay [1] (Bos taurus, BAEC, read-out: IC50, Baec Assay) is above 100000 pM.

`CO[C@@H]1[C@H](OC(=O)NCC(=O)N[C@@H](CCCNC(=N)N)C(=O)NC[C@@H](O)N[C@@H](CC(=O)O)C(=O)N[C@@H](CO)C(=O)N2CCCC2C(N)=O)CC[C@]2(CO2)[C@H]1[C@@]1(C)O[C@@H]1CC=C(C)C` (some centres unmarked) [Example 13]: the IC50 is above 1e+07 pM in assay [2] (read-out: IC50, Huvec Assay) and 2.9 nM at MetAP2. Turning to `CO[C@@H]1[C@H](OC(=O)N[C@@H](C(=O)O)C(C)C)CC[C@]2(CO2)[C@H]1[C@@]1(C)O[C@@H]1CC=C(C)C` [Example 24, 2-{(3R, 4S, 5S, 6R)-5-Methoxy-4-[(2R, 3R)-2-methyl-3-(3-methyl-but-2-enyl)-oxiranyl]-1-oxa-spiro[2.5]oct-6-yloxycarbonylamino}-3-methyl-butyric acid], the IC50 in assay [2] (setting [4]) came to 5440 pM. Regarding `CCC(C)C(NC(=O)O[C@@H]1CC[C@]2(CO2)[C@@H]([C@@]2(C)O[C@@H]2CC=C(C)C)[C@@H]1OC)C(=O)OC` (some centres unmarked) [Example 10], the IC50 in assay [1] (setting [3]) was determined as 179 pM. As to `CO[C@@H]1[C@H](OC(=O)NCC(=O)N2CCC[C@H]2C(=O)N[C@@H](CC(C)C)C(=O)N(C)CC(=O)O)CC[C@]2(CO2)[C@H]1[C@@]1(C)O[C@@H]1CC=C(C)C` [Example 18, N-Carbamoyl (ID#26) (3R, 4S, 5S, 6R) 5-methoxy-4-[(2R,3R)2-methyl-3-(3methyl-but-2-enyl)-oxiranyl]-1-oxa-spiro[2.5]oct-6-yl ester] (X2-GPL[Sar]-OH), the IC50 in assay [2] (read-out: IC50, Huvec Assay) was above 100000 pM. Take `CO[C@@H]1[C@H](OC(=O)NCC(=O)N[C@@H](CCCNC(=N)N)C(=O)NCC(=O)N[C@@H](CC(=O)O)C(N)=O)CC[C@]2(CO2)[C@H]1[C@@]1(C)O[C@@H]1CCC(C)C` [Example 15] (X3-GRGD-NH2): the IC50 in assay [2] (read-out: IC50, Huvec Assay) was above 1e+07 pM. For the compound `COC(=O)[C@H](NC(=O)O[C@@H]1CC[C@]2(CO2)[C@@H]([C@@]2(C)O[C@@H]2CC=C(C)C)[C@@H]1OC)C(C)(C)C` [Example 8, 2-{(3R, 4S, 5S, 6R )-5-Methoxy-4-[(2R, 3R)-2-methyl-3-(3-methyl-but-2-enyl)-oxiranyl]-1-oxa-spiro[2.5]oct-6-yloxycarbonylamino}-3,3-dimethyl-butyric acid methyl ester], the IC50 in assay [1] (setting [3]) stood at 313 pM. Regarding `CO[C@@H]1[C@H](OC(=O)NCC(=O)N2CCC[C@H]2C(=O)N[C@@H](CC(C)C)C(=O)NCC(=O)O)CC[C@]2(CO2)[C@H]1[C@@]1(C)O[C@@H]1CC=C(C)C` [Example 19, N-Carbamoyl (ID#27) (3R, 4S, 5S, 6R) 5-methoxy-4-[(2R,3R)2-methyl-3-(3-methyl-but-2-enyl)-oxiranyl]-1-oxa-spiro [2.5]oct-6-yl ester] (X2-GPLG-OH), the IC50 in assay [1] (read-out: IC50, Baec Assay) is above 100000 pM; in assay [2] (read-out: IC50, Huvec Assay), above 100000 pM.

For `CO[C@@H]1[C@H](OC(=O)N[C@@H](C(N)=O)C(C)C)CC[C@]2(CO2)[C@H]1[C@@]1(C)O[C@@H]1CCC(C)C` [Example 6, (1-Carbamoyl-2-methyl-propyl)-carbamic acid-(3R, 4S, 5S, 6R )-5-methoxy-4-[(2R, 3R)-2-methyl-3-(3-methyl-butyl)-oxiranyl]-1-oxa-spiro[2.5]oct-6-yl ester], the IC50 in assay [1] (setting [3]) is 220 pM.

Usually IC50 stands for the concentration that inhibits the measured activity by half.
